Data: patent publication US20050137209A1, “Treatment of neurologic disorders with inhibitors of 11beta-HSD1” (AGY Therapeutics, Inc., priority 2003, published 2005)

Legend:
[1] = system: middle cerebral artery occlusion (MCAO) brain infarction; assay: MCAO transient focal ischemia, carbenoxolone (Example 2); format: in vivo, rat
Description: The method used is a middle cerebral artery (MCA) occlusion to induce temporary cerebral ischemia. It involves anesthetizing the rat, making an incision in the ventral neck region to isolate the common carotid artery and the internal and external carotid arteries. […] A silicone-coated mono filament is then inserted into the external carotid artery and woven through the artery into the internal carotid until it can occlude blood flow to the middle cerebral artery (MCA). The filament can then be tied in place (permanent occlusion) or removed after a short amount of time depending on the desired degree of ischemic damage (3 minutes to 2 hours). After removal of the filament, the external carotid stump is tied shut and the clamps removed to allow the return of blood flow to the brain. The incision was closed with wound clips. Post surgery, animals were observed until recovery from anesthesia. During the surgery, animals were kept on a thermostat-regulated heating pad to maintain the body and head temperatures at 37° C. To inhibit the blood from clotting 90 IU.kg^−1 Heparin was administered intravenously to the animal after occlusion of MCAO. The body core temperature of the animal was measured regularly, up to 1 day of recovery in some animals. […] Temperatures are measured manually using a rat probe. […] Infarction volume was measured by digital imaging and image analysis software. […]

[2] = system: middle cerebral artery occlusion (MCAO) brain infarction; assay: MCAO transient focal ischemia, BVT 2733 (Example 1); format: in vivo; conditions: rat, 90 min MCAO, bolus 90 mg/kg at 4.5 h and 8.5 h post-occlusion, 24 h reperfusion
Method: BVT 2733 was tested in the following MCAO protocol. A middle cerebral artery (MCA) occlusion was used to induce temporary cerebral ischemia. It involves anesthetizing the rat, making an incision in the ventral neck region to isolate the common carotid artery and the internal and external carotid arteries. […] A silicone-coated mono filament is then inserted into the external carotid artery and woven through the artery into the internal carotid until it can occlude blood flow to the middle cerebral artery (MCA). The filament is removed after 90 min. After removal of the filament, the external carotid stump is tied shut and the clamps removed to allow the return of blood flow to the brain. The incision will be closed with wound clips. Post surgery, animals are observed until recovery from anesthesia.
During the surgery, animals are kept on a thermostat-regulated heating pad to maintain the body and head temperatures at 37° C. […]
The body core temperature of the animal is measured regularly, up to 1 day of recovery in some animals. […] Temperatures are measured manually using a rectal probe. […]
After 24 hours of reperfusion, the animals are sacrificed. […] Infarction volume was measured by digital imaging and image analysis software. Infarction volumes are determined in cortex and striatum and expressed as a percentage of the total brain volume. […]

human 11βHSD2 = biological target: T1, human 11βHSD2 (Homo sapiens, UniProt P80365); conditions: cited from earlier work
T1 sequence (P80365 1-405): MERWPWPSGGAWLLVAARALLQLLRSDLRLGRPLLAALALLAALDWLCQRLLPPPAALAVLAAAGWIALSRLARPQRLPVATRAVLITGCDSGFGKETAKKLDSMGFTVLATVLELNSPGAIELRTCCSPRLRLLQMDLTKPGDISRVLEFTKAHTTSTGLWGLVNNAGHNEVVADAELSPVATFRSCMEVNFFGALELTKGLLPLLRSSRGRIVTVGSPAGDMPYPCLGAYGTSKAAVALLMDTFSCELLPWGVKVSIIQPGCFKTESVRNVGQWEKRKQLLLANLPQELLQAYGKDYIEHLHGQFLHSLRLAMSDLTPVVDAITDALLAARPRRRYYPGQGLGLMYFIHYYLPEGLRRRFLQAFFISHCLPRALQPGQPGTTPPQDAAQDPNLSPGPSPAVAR

Structure (SMILES): CC1(C)[C@@H](OC(=O)CCC(=O)O)CC[C@]2(C)[C@H]3C(=O)C=C4[C@@H]5C[C@@](C)(C(=O)O)CC[C@]5(C)CC[C@@]4(C)[C@]3(C)CC[C@@H]12 [carbenoxolone]
- neuroprotection ([1]; rat MCAO, carbenoxolone administered at 4 to 6 hours post-occlusion): potent neuroprotection
- infarction volume in cortex and striatum as percentage of total brain volume, versus vehicle ([1]; rat, 90 min MCAO, bolus 20 mg at 5 min of reperfusion plus infusion 1.6 mg/h for 24 hours, TTC staining): smaller infarction compared to vehicle treated rats

Structure (SMILES): Cc1c(Cl)cccc1S(=O)(=O)Nc1nc(CC(=O)N2CCN(C)CC2)cs1 [BVT 2733, 3-Chloro-2-methyl-N-{4-[2-(4-methyl-piperazin-1-yl)-2-oxo-ethyl]-thiazol-2-yl}-benzenesulfonamide]
- neuroprotection (FIG. 1) [2]: potent and significant neuroprotection
- infarction volume in cortex and striatum as percentage of total brain volume, versus vehicle ([2]; TTC staining): smaller infarction compared to vehicle treated rats
- IC50 (human 11βHSD2): > 10 µM
